Structures are written as SMILES. Entries after “also recorded” stand apart in the source; their conditions may differ.

In assay [1] the test system is blood-cerebrospinal fluid barrier and blood-brain barrier. Nature of the assay: Contrast-enhanced T1-weighted MRI of B-CSF-B / BBB permeability. The class given is in vivo, rat. The procedure:
(§1) Adult male Wistar rats (Harlan-Olac, UK) were anaesthetised with fentanyl/fluanisone and midazolam (0.68 ml/kg of each). Using a 50 μm-tipped glass pipette, 1 μl rat recombinant TNF-α (NIBSC, Potters Bar, UK) solution was injected stereotaxically 1 mm anterior and 3 mm lateral to Bregma, at a depth of 4 mm into the left striatum. Animals were injected with either 0.3 μg/μl or 1.5 μg/μl of TNF-A, each in 0.1% BSA in low-endotoxin saline, or with vehicle solution only. Animals were positioned in the MRI probe (3.4 cm i.d. Alderman-Grant resonator) using a bite-bar. During MRI, anaesthesia was maintained with 0.8-1.2% halothane in 50% N2O/50% O2, ECG was monitored non-invasively and body temperature was maintained at […]. All procedures were approved by the United Kingdom Home Office.
Magnetic resonance images were acquired using a 300 MHz Varian Inova spectrometer (Varian, Palo Alto, Calif.). Anatomical images were acquired using a T2-weighted sequence (repetition time, TR, 3 sec; echo time, TE, 80 msec). […] Diffusion gradients were applied separately along three orthogonal axes and apparent diffusion coefficient (ADC) “trace” maps were calculated^40. […]

The test system of assay [2] is rat brain striatum (tissue water diffusion). Put plainly: Diffusion weighted MRI: apparent diffusion coefficient (ADC) of tissue water in striatum. The note with it: 24 h. The class given is in vivo. The procedure:
as §1
(§2) Magnetic resonance images were acquired using a 300 MHz Varian Inova spectrometer (Varian, Palo Alto, Calif.). […] Diffusion gradients were applied separately along three orthogonal axes and apparent diffusion coefficient (ADC) “trace” maps were calculated^40. […]
(§3) Regions of Interest (ROI) encompassing the striatum were defined on T2-weighted images in each hemisphere, and applied to all images or calculated data maps for quantitation. For the rCBV maps and T2-weighted images the data are expressed as a ratio of injected/non-injected striatal values. […]

The subject of assay [3] is rrTNF-α-induced reduction in striatal rCBV. Put plainly: Effect of ET receptor antagonist on rrTNF-α-induced acute rCBV reduction (MRI). Type of assay: in vivo, rat. The note with it: 5 mg/kg i.v. 10 min prior to 1.5 μg intrastriatal rrTNF-α; 1.5 h. The procedure: as §1, §2, §3

As to `COc1cccc(Oc2c(NS(=O)(=O)c3ccc(C(C)(C)C)cc3)ncnc2OCCO)c1` [Ro 46-2005], in assay [1] (Ro 46-2005 pre-treatment + 1.5 g TNF-α (so in the source), 24 h), the “BBB breakdown: increase in signal intensity of injected striatum” value was 10.3±2.7%. For the same compound, the “effect of pre-treatment on TNF-α-induced B-CSF-B breakdown” value in assay [1] (pre-treatment before TNF-α, 1.5 h) was “did not significantly alter”. Moreover, in assay [2] (Ro 46-2005 i.v. pre-treatment + 1.5 μg rrTNF-α intrastriatal (left)), the “Apparent Diffusion Coefficient, Right (control) striatum” value is 7.23 ± 0.17 ×10^−4 mm^2/sec. In assay [2] (pre-treatment before 1.5 μg rrTNF-α), the “effect of pre-treatment on TNF-α-induced reduction in ADC” value is recorded as “not affected”. The “effect on rrTNF-α-induced reduction in striatal rCBV” value in assay [3] was “No significant differences; also recorded: eliminated”.

The values above are taken from patent US20040180817A1, “Neuropathologies associated with expression of tnf-$g (a)” (priority 2001, published 2004).
